Where “and” joins values, the source holds several entries; their conditions need not be identical. Equal entries are not always repeated.
Key:
TRE-Bi promoter [1] = assay: Dual-luciferase assay in nucleofected iNPCs; format: cell-based, human; conditions: 24-hour dox treatment; iNPCs nucleofected with pB-RTP-Tet-GDNF/memClover-FLuc, pBase and Ef1-Renilla
Method: In all experiments, dox solution was maintained in light protection and 4° C. For cell culture, dox (Clontech 631311) was added to culture media at 100 ng/ml. For in vivo work, animals were administered dox (15 μg dox/g weight) every 3-4 days by oral gavage (e.g. 60 μl for a 20 g animal), using a soft-tipped feeding needle (Instech FTP-20-30; Plymouth Meeting, PA) attached to a 1 ml syringe (BD 309659; Franklin Lakes, NJ). To quantitatively assess reporter expression from the TRE-Bi promoter, iNPCs were nucleofected as above, along with an Ef1-Renilla plasmid that constitutively expresses Renilla luciferase for protein normalization. […] To assess the kinetics of the TRE-Bi inducible promoter, firefly luciferase activity was quantified in a live culture of the nucleofected iNPCs grown in the presence of beetle luciferin (FIG. 1F). […] As a clinically-relevant cell product would need to be expanded and banked, the Inventors assessed if the TRE-Bi promoter would remain functionally responsive with an extensive cell expansion and freeze.

TRE-Bi promoter [2] = assay: Flow analysis of GFP induction after extensive cell expansion and freeze; format: cell-based, human; conditions: 24 hours after adding dox; cells 6 months in culture after nucleofection, two freeze/thaw cycles
Method: FIG. 5. IPSC-derived NPCs nucleofected with pB-RTP-Tet-GDNF/memClover-FLuc retain their ability to be induced upon the addition of dox. 83% of BF^+ cells were also GFP^+ (P5 Gate) 24 hours after adding dox to cells that were grown in culture for 6 months after nucleofection. Note: Cells were also exposed to two freeze/thaw cycles and were frozen for a total of 10 months during this period.
To quantitatively assess reporter expression from the TRE-Bi promoter, iNPCs were nucleofected as above, along with an Ef1-Renilla plasmid that constitutively expresses Renilla luciferase for protein normalization. […] To assess the kinetics of the TRE-Bi inducible promoter, firefly luciferase activity was quantified in a live culture of the nucleofected iNPCs grown in the presence of beetle luciferin (FIG. 1F). […] As a clinically-relevant cell product would need to be expanded and banked, the Inventors assessed if the TRE-Bi promoter would remain functionally responsive with an extensive cell expansion and freeze.

GDNF = assay: Blinded postmortem GDNF scoring (DAB stain) of transplanted tissue; format: in vivo, NOD-SCID mice; set-up: key: (−) no positive staining; (+) slight staining; (++) moderate staining; (+++) extensive staining; conditions: one line per animal; for GDNF Str/CC: striatum/corpus callosum
Method: In all experiments, dox solution was maintained in light protection and 4° C. For cell culture, dox (Clontech 631311) was added to culture media at 100 ng/ml. For in vivo work, animals were administered dox (15 μg dox/g weight) every 3-4 days by oral gavage (e.g. 60 μl for a 20 g animal), using a soft-tipped feeding needle (Instech FTP-20-30; Plymouth Meeting, PA) attached to a 1 ml syringe (BD 309659; Franklin Lakes, NJ). Nucleofected iNPCs, which underwent two rounds of FACS for BFP, were transplanted into the striatum (41 of cells at 100,000 cells/μ1 into each hemisphere) of 6-month old NOD-SCID mice (Nod.cb17-Prkdc^scid/J, Jackson Lab #1303; Bar Harbor, ME). Three days before transplantation, a subset of cells was treated with dox. For transplantation, cells were dissociated and diluted to a final concentration of 100,000 cells/μl in conditioned media, and maintained on ice. Animals were anesthetized with isoflurane and placed in a stereotaxic frame. Cells were injected bilaterally relative to bregma at 0.7 mm rostral and +/−2.0 mm lateral. A 5 μl Hamilton microsyringe backfilled with PBS was loaded with 2 μl of cell solution and inserted to a depth of −4.00 mm. The microsyringe was then raised to −3.50 mm and the cell solution was injected at 1 μl/min. After cell injection, the microsyringe was raised to −3.00 mm, held for 2 minutes and slowly withdrawn. Animals were checked daily. Immunostained sections were photographed using a Leica DM200 LED microscope. Images were scored based on stain intensity of DAB GDNF stain by an observer blinded to the experiment conditions (dox vs no dox). Finally, DAB staining, which provides a high sensitivity of protein detection and has effectively tracked human GDNF-expressing NPC transplants, was used to determine the levels and location of GDNF expression.

[3] = animals that ended trial OFF dox (dox withdrawn)
[4] = animals that ended trial ON dox

Compound: C[C@H]1c2cccc(O)c2C(=O)C2=C(O)[C@]3(O)C(=O)C(C(N)=O)=C(O)[C@@H](N(C)C)[C@@H]3[C@@H](O)[C@@H]21 [dox, doxycycline]
- increase in firefly luciferase activity (normalized to Renilla) (TRE-Bi promoter [1]): ~1300 fold
- BFP+ cells induced to express GFP (TRE-Bi promoter [2]): 83%
- GDNF Meninges (GDNF; [3]): −
- GDNF Str/CC (GDNF; [3]): −
- GDNF Meninges (GDNF; [4]): +++ and − (3×) and + (2×) and ++
- GDNF Str/CC (GDNF; [4]): − (3×) and ++ (3×) and +

From US12258571B2, “Methods and compositions for inducible expression of neurotrophic factors” (CEDARS-SINAI MEDICAL CENTER, priority 2018, dated 2025)
